Laboratory results: PubChem BioAssay AID1963861 (Molecular Pharmacology Branch, DTP, NCI, 2024)

System: 885724-159-R-J1-PDC KRAS PDC multicell spheroid viability
Assay: Anticancer human tumor 885724-159-R-J1-PDC patient-derived pancreatic adenocarcinoma cell line growth inhibition [KRAS2]
Conditions: for IC50: curve of first compound; for viability, T/C: stronger effect = lower value
Procedure, shortened: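 KRAS-mutant tumor cells were grown as spheroids with HUVEC endothelial cells and human MSCs as stroma. Targeted agents were tested alone and with KRAS pathway inhibitors. Doses started at or near clinical Cmax, or 10 microM, descending half-log.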

[1] = second compound 0.1 µM, first compound 0.0316 µM
[2] = second compound 0.1 µM, first compound 0.1 µM
[3] = second compound 0.1 µM, first compound 0.316 µM
[4] = second compound 0.1 µM, first compound 1 µM
[5] = second compound 0.1 µM, first compound 3.16 µM
[6] = second compound 0.1 µM, first compound 10 µM
[7] = second compound 0.316 µM, first compound 0.0316 µM
[8] = second compound 0.316 µM, first compound 0.1 µM
[9] = second compound 0.316 µM, first compound 0.316 µM
[10] = second compound 0.316 µM, first compound 1 µM
[11] = second compound 0.316 µM, first compound 3.16 µM
[12] = second compound 0.316 µM, first compound 10 µM
[13] = second compound 1 µM, first compound 0.0316 µM
[14] = second compound 1 µM, first compound 0.1 µM
[15] = second compound 1 µM, first compound 0.316 µM
[16] = second compound 1 µM, first compound 1 µM
[17] = second compound 1 µM, first compound 3.16 µM
[18] = second compound 1 µM, first compound 10 µM
[19] = second compound 3.16 µM, first compound 0.0316 µM
[20] = second compound 3.16 µM, first compound 0.1 µM
[21] = second compound 3.16 µM, first compound 0.316 µM
[22] = second compound 3.16 µM, first compound 1 µM
[23] = second compound 3.16 µM, first compound 3.16 µM
[24] = second compound 3.16 µM, first compound 10 µM
[25] = second compound 10 µM, first compound 0.0316 µM
[26] = second compound 10 µM, first compound 0.1 µM
[27] = second compound 10 µM, first compound 0.316 µM
[28] = second compound 10 µM, first compound 1 µM
[29] = second compound 10 µM, first compound 3.16 µM
[30] = second compound 10 µM, first compound 10 µM
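Note: spheroids exposed to agents for 7 days before readout.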

Structure (SMILES)	IC50 (second compound 0.1 µM) [nM]	IC50 (second compound 0.316 µM) [nM]	IC50 (second compound 1 µM) [nM]	IC50 (second compound 3.16 µM) [nM]	IC50 (second compound 10 µM) [nM]	viability, T/C [1] [%]	viability, T/C [2] [%]	viability, T/C [3] [%]	viability, T/C [4] [%]	viability, T/C [5] [%]	viability, T/C [6] [%]	viability, T/C [7] [%]	viability, T/C [8] [%]	viability, T/C [9] [%]	viability, T/C [10] [%]	viability, T/C [11] [%]	viability, T/C [12] [%]	viability, T/C [13] [%]	viability, T/C [14] [%]	viability, T/C [15] [%]	other results
COC(=O)c1ccc2c(C(=Nc3ccc(N(C)C(=O)CN4CCN(C)CC4)cc3)c3ccccc3)c(O)[nH]c2c1 + COc1cc2nc(C)nc(NC(C)c3cc(N)cc(C(F)(F)F)c3)c2cc1OC1CCOC1	2290	2430	1980	1780	< 31.6	121	127	120	118	23.7	1.54	107	114	102	103	34.5	0.96	103	106	107	viability, T/C [16]: 98.1%; viability, T/C [17]: 17%; viability, T/C [18]: 1.09%; viability, T/C [19]: 93.8%; viability, T/C [20]: 98.6%; viability, T/C [21]: 104%; viability, T/C [22]: 95.8%; viability, T/C [23]: 3.95%; viability, T/C [24]: 0.79%; viability, T/C [25]: 46.7%; viability, T/C [26]: 48.8%; viability, T/C [27]: 19.4%; viability, T/C [28]: 8.2%; viability, T/C [29]: 0.75%; viability, T/C [30]: 0.36%
COc1cc(Nc2ncc3c(n2)-c2ccc(Cl)cc2C(c2c(F)cccc2OC)=NC3)ccc1C(=O)O + COc1cc2nc(C)nc(NC(C)c3cc(N)cc(C(F)(F)F)c3)c2cc1OC1CCOC1	> 10000	> 10000	> 10000	> 10000	88.3	110	99.3	90.9	105	106	108	114	96.4	90.7	96.1	102	105	108	102	101	viability, T/C [16]: 93.7%; viability, T/C [17]: 108%; viability, T/C [18]: 107%; viability, T/C [19]: 98.8%; viability, T/C [20]: 96.8%; viability, T/C [21]: 92.3%; viability, T/C [22]: 92.5%; viability, T/C [23]: 97.5%; viability, T/C [24]: 114%; viability, T/C [25]: 83.4%; viability, T/C [26]: 45.5%; viability, T/C [27]: 44%; viability, T/C [28]: 45.6%; viability, T/C [29]: 62.9%; viability, T/C [30]: 30.3%
COc1cc2nccc(Oc3ccc(NC(=O)C4(C(=O)Nc5ccc(F)cc5)CC4)cc3)c2cc1OC + COc1cc2nc(C)nc(NC(C)c3cc(N)cc(C(F)(F)F)c3)c2cc1OC1CCOC1	> 10000	> 10000	4630	1720	< 31.6	99.6	102	104	91	65.2	60	96.6	93.5	93.1	80.9	65.8	54.8	97.4	93.4	76.2	viability, T/C [16]: 73.9%; viability, T/C [17]: 48.7%; viability, T/C [18]: 44.6%; viability, T/C [19]: 88.8%; viability, T/C [20]: 97.9%; viability, T/C [21]: 89.5%; viability, T/C [22]: 67.6%; viability, T/C [23]: 28.7%; viability, T/C [24]: 31.8%; viability, T/C [25]: 55%; viability, T/C [26]: 17.2%; viability, T/C [27]: 21.5%; viability, T/C [28]: 28.1%; viability, T/C [29]: 0.71%; viability, T/C [30]: 0.34%
